Data from patent US9296787B2, “Antitumor peptide and use thereof” (priority 2011, dated 2016).
Read-outs that look alike come from different tables or passages of the source. Positions of bridges follow the written chain, without caps; N, C: chain ends. Residues, ends and D or L forms follow the SMILES beside them. No end group written: not given here.

Assays:
Assay type in all cases: cell-based
HeLa cells (HeLa S3) = conditions: WST-8 absorbance after 24 hours
Procedure: (§1) As the tumor cells tested, a commercial mouse neuroblastoma cell line (N1E-115) was used. The cell line was cultured beforehand in a DMEM medium (i.e. Dulbecco MEM medium (DMEM medium, a Gibco product) containing 10% fetal bovine serum (FBS, a Gibco product), 2 mM of L-glutamine, 50 unit/mL of penicillin, and 50 μg/mL of streptomycin), and the number of cells per well in a 96-well plate was adjusted to approximately 5×10^3. The volume of the medium for this was 100 μL per well.
(§2) Subsequently, the stock solution of each sample peptide shown in Table 3 was added to each well to a peptide concentration in the well of 50 μM or 100 μM.
(§3) After the sample peptides were added as described above, the 96-well plate was placed in a CO2 incubator and cultured without agitation at 37° C. under 5% CO2. At the time of the peptide addition (at the start of treatment) and at 6 hours or 24 hours from the peptide addition and the start of incubation, the viability status of the cultured cells tested was analyzed with a commercial colorimetric assay kit. In particular, to each cell-culturing well, “water-soluble tetrazolium salt (WST-8)” was added as a colorimetric reagent; after two hours of incubation following the addition, the cell culture medium supplied with the colorimetric reagent was collected; and the level of inhibition of cell proliferation was evaluated by colorimetry, measuring the absorbance at a wavelength of 450 nm (values corrected with the absorbance at a wavelength of 620 nm, A450-A620) based on reduction of tetrazolium salt. Based on the absorbance at the time of the sample peptide addition (at the start of treatment), the percent decrease in the absorbance after 6 hours or 24 hours was determined as the cell proliferation inhibition rate (%).
HeLa cells (HeLa S3) were substituted for the tumor cells tested and the same test as Example 2 described above was carried out. In the present example, the peptides of Samples 1 to 7, 9, 10, 13, 16, 21 and 35 were used.

[1] = test system: human alveolar basal epithelial adenocarcinoma cells, A549; conditions: for A450(-A620) After 24 hers: A549, peptide 50 μM, WST-8 absorbance after 24 hours; for antitumor activity (tumor cell proliferation-inhibiting activity), in words: A549, 50 μM, 24 hours, summary of Table 5
Procedure: as §1, §2, §3
Cells forming a […] (human alveolar basal epithelial adenocarcinoma cells, A549) were substituted for the tumor cells tested and the same test as Example 2 described above was carried out. In the present example, the peptides of Samples 1 to 13, 15 to 22, 24, 29, 35 and 40 were used.

HeLa cells = assay: Multipolar spindle formation, DAPI and anti-tubulin immunofluorescence microscopy; conditions: after 24 hours
Procedure: In addition, the cultured cells supplemented with the peptides were observed under fluorescence microscope. Herein, as for some examples, the observations on Samples 1, 9, 13, 16, 21 and 35 are outlined. In particular, each peptide was added to a peptide concentration in a well of 50 μM (Samples 1, 9) or 100 μM (Samples 13, 16, 21, 35). After 24 hours, the cultured cells were subjected to nuclear staining with DAPI (4′,6-diamidino-2-phenylindole) and observed under fluorescence microscope. As a marker for spindles, α-tubulin was used; and the cells were tested for the presence of tubulin (i.e. the presence of spindles) by immunofluorescence, using a fluorescence-labeled anti-tubulin antibody to identify the tubulin. FIGS. 1 to 6 show merged images of DAPI-stained images and fluorescence images showing the results of the immunofluorescence assays using the fluorescence-labeled anti-tubulin antibody.

[2] = test system: mouse neuroblastoma cell line (N1E-115); conditions: for A450(-A620) After 24 hers: WST-8 absorbance after 24 hours; for A450(-A620) After 6 hers: WST-8 absorbance after 6 hours
Procedure: Some of the sample peptides obtained in Example 1 were tested for antitumor activity against target cultured tumor cells. Details of the assay are as described below.
as §1, §2, §3

| Compound | A450(-A620) After 24 hers (HeLa cells (HeLa S3); HeLa S3, peptide 50 μM) | A450(-A620) After 24 hers (HeLa cells (HeLa S3); HeLa S3, peptide 100 μM) | A450(-A620) After 24 hers [1] | formation of multipolar spindles (presence of many multipolar cells) (HeLa cells; peptide 100 μM) | A450(-A620) After 24 hers ([2]; N1E-115, peptide 50 μM) | A450(-A620) After 24 hers ([2]; N1E-115, peptide 100 μM) | antitumor activity (tumor cell proliferation-inhibiting activity), in words [1] | A450(-A620) After 6 hers ([2]; N1E-115, peptide 50 μM) | A450(-A620) After 6 hers ([2]; N1E-115, peptide 100 μM) | formation of multipolar spindles (presence of many multipolar cells) (HeLa cells; peptide 50 μM) | antitumor activity (tumor cell proliferation-inhibiting activity), in words ([2]; N1E-115, 50 or 100 μM, summary of Table 3) |
| --- | --- | --- | --- | --- | --- | --- | --- | --- | --- | --- | --- |
| CC(C)C[C@@H]1NC(=O)[C@@H]2CCCN2C(=O)[C@H](Cc2ccccc2)NC(=O)[C@H](C)NC(=O)[C@H](Cc2c[nH]c3ccccc23)NC(=O)[C@@H](N)CSSC[C@@H](C(=O)O)NC(=O)[C@H](Cc2c[nH]cn2)NC(=O)[C@H](Cc2c[nH]cn2)NC1=O [Sample 5, CWAFPLHHC] (H-CWAFPLHHC-OH; disulfide 1-9; N-terminus and C-terminus assumed) | 0.0955 | 0.0952 | 1.8994 |  |  |  |  |  |  |  |  |
| GPHHYWYHLRLP [Sample 16, GPHHYWYHLRLP] |  |  | 1.7309 | formation of multipolar spindles | 0.6912 | 0.6048 |  |  |  |  |  |
| GPHLGMNQRRRP [Sample 21, GPHLGMNQRRRP] |  |  | 1.5672 | formation of multipolar spindles | 0.5284 | 0.5810 | high antitumor activity |  |  |  |  |
| CC[C@H](C)[C@@H]1NC(=O)[C@H](CCC(=O)O)NC(=O)[C@@H](N)CSSC[C@@H](C(=O)O)NC(=O)[C@H]([C@@H](C)O)NC(=O)[C@H](CCCNC(=N)N)NC(=O)[C@H](CCCCN)NC(=O)[C@H](C)NC(=O)[C@H](CO)NC1=O [Sample 7, CEISAKRTC] (H-CEISAKRTC-OH; disulfide 1-9; N-terminus and C-terminus assumed) | 0.1508 | 0.1081 | 1.6822 |  |  |  |  |  |  |  |  |
| CC(C)C[C@@H]1NC(=O)[C@@H](N)CSSC[C@@H](C(=O)O)NC(=O)[C@H](CCCCN)NC(=O)[C@H](CO)NC(=O)[C@@H]2CCCN2C(=O)[C@H](CO)NC(=O)[C@@H]2CCCN2C(=O)[C@H](C)NC1=O [Sample 2, CLAPSPSKC] (H-CLAPSPSKC-OH; disulfide 1-9; N-terminus and C-terminus assumed) | 0.0924 | 0.0739 | 1.8971 |  | 0.3926 | 0.3764 |  | 0.2235 | 0.2094 |  |  |
| CC(C)C[C@@H]1NC(=O)[C@H]([C@@H](C)O)NC(=O)[C@@H](N)CSSC[C@@H](C(=O)O)NC(=O)[C@H](CC(N)=O)NC(=O)[C@H](CO)NC(=O)[C@H](Cc2c[nH]cn2)NC(=O)[C@H](CO)NC(=O)[C@H](CC(N)=O)NC1=O [Sample 6, CTLNSHSNC] (H-CTLNSHSNC-OH; disulfide 1-9; N-terminus and C-terminus assumed) | 0.1174 | 0.0906 | 1.4667 |  | 0.3083 | 0.2830 | high antitumor activity | 0.1633 | 0.1345 |  |  |
| C[C@@H]1NC(=O)[C@H](CO)NC(=O)[C@H](CO)NC(=O)[C@@H](N)CSSC[C@@H](C(=O)O)NC(=O)[C@H](CO)NC(=O)[C@H](CCCCN)NC(=O)CNC(=O)[C@H]([C@@H](C)O)NC1=O [Sample 1, CSSATGKSC] (H-CSSATGKSC-OH; disulfide 1-9; N-terminus and C-terminus assumed) | 0.1028 | 0.0891 | 1.5487 |  | 0.1578 | 0.1119 | high antitumor activity | 0.1361 | 0.1104 | formation of multipolar spindles | high antitumor activity |
| N=C(N)NCCC[C@@H]1NC(=O)[C@H](Cc2c[nH]cn2)NC(=O)CNC(=O)[C@@H](N)CSSC[C@@H](C(=O)O)NC(=O)[C@H](Cc2ccc(O)cc2)NC(=O)[C@H](CCC(N)=O)NC(=O)[C@H](Cc2ccc(O)cc2)NC(=O)[C@@H]2CCCN2C1=O [Sample 4, CGHRPYQYC] (H-CGHRPYQYC-OH; disulfide 1-9; N-terminus and C-terminus assumed) | 0.0955 | 0.0937 | 1.7663 |  |  |  |  |  |  |  |  |
| C[C@@H]1NC(=O)[C@H](Cc2c[nH]c3ccccc23)NC(=O)[C@H](Cc2c[nH]cn2)NC(=O)CNC(=O)[C@H]([C@@H](C)O)NC(=O)[C@@H](N)CSSC[C@@H](C(=O)O)NC(=O)[C@H](CCC(=O)O)NC(=O)[C@H](CO)NC1=O [Sample 10, CTGHWASEC] (H-CTGHWASEC-OH; disulfide 1-9; N-terminus and C-terminus assumed) | 0.0909 | 0.0915 | 1.7472 |  |  |  |  |  |  |  |  |
| CC(C)C[C@@H]1NC(=O)[C@H](CO)NC(=O)[C@@H]2CCCN2C(=O)[C@@H]2CCCN2C(=O)[C@H](CCCNC(=N)N)NC(=O)[C@@H]2CCCN2C(=O)[C@@H](N)CSSC[C@@H](C(=O)O)NC(=O)[C@H](CCC(=O)O)NC1=O [Sample 9, CPRPPSLEC] (H-CPRPPSLEC-OH; disulfide 1-9; N-terminus and C-terminus assumed) | 0.1366 | 0.0892 | 1.8645 |  |  |  |  |  |  | formation of multipolar spindles |  |
| SVSVGMKPSPRP [Sample 13, SVSVGMKPSPRP] |  |  | 1.9412 | formation of multipolar spindles | 0.5681 | 0.6422 |  |  |  |  |  |
| CSCC[C@@H]1NC(=O)[C@H](CCCCN)NC(=O)[C@H]([C@@H](C)O)NC(=O)[C@H](CCC(N)=O)NC(=O)CNC(=O)[C@H](CC(C)C)NC(=O)[C@@H](N)CSSC[C@@H](C(=O)O)NC(=O)[C@H](CCCNC(=N)N)NC1=O [Sample 3, CLGQTKMRC] (H-CLGQTKMRC-OH; disulfide 1-9; N-terminus and C-terminus assumed) | 0.1194 | 0.0997 | 1.7022 |  |  |  | high antitumor activity |  |  |  |  |
| SVSVGMKPSPRPKKRTLRKNDRKKR [Sample 35] |  |  | 1.7451 | formation of multipolar spindles |  |  | high antitumor activity |  |  |  |  |
